The text below walks through data of US9879014B2, “Method for screening substance capable of inhibiting abnormal splicing causative of onset or progress of disease” (KYOTO UNIVERSITY, priority 2013, dated 2018).

In assay [1] the test system is IKBKAP gene with the IVS20+6T→C mutation. As to conditions: disclosed in U.S. Pat. No. 7,737,110; cited from earlier work.
Assay [2] deals with pre-mRNA of the mutant human IKBKAP gene having the IVS20+6T→C mutation. In words: two-color fluorescent FD-type splicing reporter construct in HeLa cells (GFP/RFP). The class given is cell-based. As to conditions: HeLa cells transfected with FD-type reporter construct. The text has this: A reporter construct (FD type) as illustrated in FIG. 1B was produced by utilizing exons 19 to 21 of a mutant human IKBKAP gene having the IVS20^+6T→C mutation as illustrated in FIG. 1A. In the reporter construct, a gene for a GST protein, exons 19 to 21 of a mutant human IKBKAP gene, a red fluorescent protein (RFP), and a green fluorescent protein (GFP) were connected in this order downstream of a CAG promoter. When this reporter construct underwent wild-type splicing, the gene for a GST protein and exons 19 to 21 of the mutant human IKBKAP gene were joined to form an mRNA of 3n+1 bases in length, and a stop codon (UAA) of the RFP gene was out-of-frame, so that the GFP gene was translated in the frame to express a green fluorescent protein. On the other hand, when this reporter construct underwent abnormal splicing, the gene for a GST protein and exons 19 to 21 of the mutant human IKBKAP gene were joined to form an mRNA of 3n bases in length, so that the RFP gene and the stop codon (UAA) of the RFP gene were translated in the frame to express a red fluorescent protein. The FD-type reporter construct was used to screen a compound capable of inhibiting abnormal splicing of a pre-mRNA that was transcribed from the construct. Specifically, the FD-type reporter construct was transfected into HeLa cells, and then a test compound was brought into contact with the HeLa cells and cultured. Next, fluorescence observation was performed after a predetermined time, and the fluorescence intensity ratio (GFP/RFP) of GFP (normal splicing products) to RFP (abnormal splicing products) was compared to the control (e.g., a solvent alone or kinetin (reference compound 1)), so that the compound with higher fluorescence intensity was determined. […] The FD-type reporter construct was transfected into HeLa cells, and then the compound 1 was brought into contact with the HeLa cells and cultured (compound concentration: […], and 50.0 μM). Next, fluorescence observation was performed each after 24 hours and 48 hours, and the fluorescence intensity ratio (GFP/RFP) was determined. […]

For assay [3], the system named is endogenous IKBKAP gene with the IVS20+6T→C mutation in cells of FD patients. In words: RT-PCR of spliced products of the endogenous IKBKAP gene in cells of FD patients. As to conditions: cultured 60 hours. The class given is cell-based, human. The method, then:
The cells of FD patients were obtained from Coriell Institute. The endogenous IKBKAP gene in the cells of FD patients had the IVS20^+6T→C mutation. Compound 1 and the kinetin were added at a concentration of 2 μM or 50 μM to a culture medium of the cells of FD patients. The cells were cultured for 60 hours, collected, and then subjected to RT-PCR. As the control, untreated cells and DMSO (solvent) treated cells were used. FIG. 4 illustrates the results.

“Also recorded” adds a separate entry of the source.

For the molecule `c1coc(CNc2ncnc3nc[nH]c23)c1` [kinetin], the “inhibition of abnormal splicing of the IKBKAP gene with the IVS20+6T→C mutation” value in assay [1] is recorded as “can inhibit abnormal splicing”.
Take `Clc1nc(NCc2ccco2)c2nc[nH]c2n1` [compound 1, 2-chloro-N-(2-furanylmethyl)-7H-purin-6-amine]: the “fluorescence intensity ratio (GFP/RFP) of GFP (normal splicing) to RFP (abnormal splicing)” value in assay [2] (0.4, 2.0, 0.10, and 50.0 μM, after 24 hours and 48 hours) is reported as “increased in a concentration-dependent manner; also recorded: increases the GFP/RFP ratio in a concentration-dependent manner”. Moreover, the “degree of increase of GFP/RFP ratio compared with kinetin” value in assay [2] (after 24 hours and 48 hours) is given as “significantly higher than that of the kinetin; also recorded: superior to that of kinetin”. In addition, the “screening outcome: GFP/RFP fluorescence intensity ratio compared to the control (solvent alone or kinetin)” value in assay [2] (after a predetermined time) is given as “selected as a candidate compound for inhibiting abnormal splicing”. Besides, in assay [3] (2 μM or 50 μM), the “spliced products (mRNAs) of the endogenous IKBKAP gene by RT-PCR” value is “reduces the abnormal splicing products and increases the normal splicing products”. In assay [3] (RT-PCR), the “abnormal splicing inhibition activity compared with kinetin” value is on record as “about the same as that of the kinetin at a concentration of 50 μM; also recorded: superior to that of kinetin” and the “concentration capable of inhibiting abnormal splicing” value is at most 2 µM.
